This is an account of results in patent US10519147B2 (Merck Sharp & Dohme Corp., priority 2015, dated 2019).

A word on the IC50: it is the midpoint of a concentration-inhibition curve.

Assay [1] addresses T1, human Nav1.5 (Homo sapiens, UniProt Q14524).
T1 construct: expressed in transfected cells; host or cells: HEK 293
As to the kind of experiment: IonWorks Quattro automated patch-clamp, Nav1.5 (selectivity against Nav1.7). The settings on record: IonWorks measurement, HEK 293 cells, inactivated state block. The format is cell-based. As for the experimental part:
(§1) Compounds were tested on human Nav1.7 and Nav1.5 channels stably expressed in HEK 293 cells. […] Cells were sealed on a planar substrate using the Population Patch […] (PPC) technology. Electrical access was obtained using both nystatin and amphotericin. A double-pulse protocol was used for the determination of IC50 values for inactivated state block. Nav1.7 and Nav1.5 expressing cells were voltage clamped at −100 mV and −110 mV, respectively. A depolarizing prepulse to −10 mV (Nav1.7) or −30 mV (Nav1.5) for 1000 ms followed by a 10 ms repolarization to −100 mV (Nav1.7) or −110 mV (Nav1.5) was given to generate fractional channel inactivation of 50%, followed by a 10 ms test pulse to −10 mV (Nav1.7) or −30 mV (Nav1.5) to measure peak current in control conditions and after compound addition. The following recording solutions were used (mM). External: 150 NaCl, 2 CaCl2, 5 KCl, 1 Mg Cl2, 10 HEPES, 12 Dextrose; internal: 120 CsF, 30 CsCl, 10 EGTA, 5 HEPES, 5 NaF, 2 MgCl2.
(§2) For all electrophysiology experiments, offline analysis was used to determine percent inhibition as a function of drug concentration. IC50 values were determined by fitting to the Hill equation.
Background: The patch-clamp technique gives a direct electrical read-out from membranes.

Assay [2] has as its target T2, human Nav1.7 (Homo sapiens, UniProt Q15858).
T2 construct: expressed in transfected cells; host or cells: HEK 293
As to the kind of experiment: IonWorks Quattro automated patch-clamp, inactivated state block of Nav1.7. The format is cell-based. The settings on record: channels stably expressed in HEK 293 cells; double-pulse protocol, inactivated state block; read-out: potency for the Nav 1.7 sodium ion channel (IC50, as measured by IonWorks). As for the experimental part:
as §1, §2

Bounds are passed on as bounds.

T1 sequence (Q14524 whole entry): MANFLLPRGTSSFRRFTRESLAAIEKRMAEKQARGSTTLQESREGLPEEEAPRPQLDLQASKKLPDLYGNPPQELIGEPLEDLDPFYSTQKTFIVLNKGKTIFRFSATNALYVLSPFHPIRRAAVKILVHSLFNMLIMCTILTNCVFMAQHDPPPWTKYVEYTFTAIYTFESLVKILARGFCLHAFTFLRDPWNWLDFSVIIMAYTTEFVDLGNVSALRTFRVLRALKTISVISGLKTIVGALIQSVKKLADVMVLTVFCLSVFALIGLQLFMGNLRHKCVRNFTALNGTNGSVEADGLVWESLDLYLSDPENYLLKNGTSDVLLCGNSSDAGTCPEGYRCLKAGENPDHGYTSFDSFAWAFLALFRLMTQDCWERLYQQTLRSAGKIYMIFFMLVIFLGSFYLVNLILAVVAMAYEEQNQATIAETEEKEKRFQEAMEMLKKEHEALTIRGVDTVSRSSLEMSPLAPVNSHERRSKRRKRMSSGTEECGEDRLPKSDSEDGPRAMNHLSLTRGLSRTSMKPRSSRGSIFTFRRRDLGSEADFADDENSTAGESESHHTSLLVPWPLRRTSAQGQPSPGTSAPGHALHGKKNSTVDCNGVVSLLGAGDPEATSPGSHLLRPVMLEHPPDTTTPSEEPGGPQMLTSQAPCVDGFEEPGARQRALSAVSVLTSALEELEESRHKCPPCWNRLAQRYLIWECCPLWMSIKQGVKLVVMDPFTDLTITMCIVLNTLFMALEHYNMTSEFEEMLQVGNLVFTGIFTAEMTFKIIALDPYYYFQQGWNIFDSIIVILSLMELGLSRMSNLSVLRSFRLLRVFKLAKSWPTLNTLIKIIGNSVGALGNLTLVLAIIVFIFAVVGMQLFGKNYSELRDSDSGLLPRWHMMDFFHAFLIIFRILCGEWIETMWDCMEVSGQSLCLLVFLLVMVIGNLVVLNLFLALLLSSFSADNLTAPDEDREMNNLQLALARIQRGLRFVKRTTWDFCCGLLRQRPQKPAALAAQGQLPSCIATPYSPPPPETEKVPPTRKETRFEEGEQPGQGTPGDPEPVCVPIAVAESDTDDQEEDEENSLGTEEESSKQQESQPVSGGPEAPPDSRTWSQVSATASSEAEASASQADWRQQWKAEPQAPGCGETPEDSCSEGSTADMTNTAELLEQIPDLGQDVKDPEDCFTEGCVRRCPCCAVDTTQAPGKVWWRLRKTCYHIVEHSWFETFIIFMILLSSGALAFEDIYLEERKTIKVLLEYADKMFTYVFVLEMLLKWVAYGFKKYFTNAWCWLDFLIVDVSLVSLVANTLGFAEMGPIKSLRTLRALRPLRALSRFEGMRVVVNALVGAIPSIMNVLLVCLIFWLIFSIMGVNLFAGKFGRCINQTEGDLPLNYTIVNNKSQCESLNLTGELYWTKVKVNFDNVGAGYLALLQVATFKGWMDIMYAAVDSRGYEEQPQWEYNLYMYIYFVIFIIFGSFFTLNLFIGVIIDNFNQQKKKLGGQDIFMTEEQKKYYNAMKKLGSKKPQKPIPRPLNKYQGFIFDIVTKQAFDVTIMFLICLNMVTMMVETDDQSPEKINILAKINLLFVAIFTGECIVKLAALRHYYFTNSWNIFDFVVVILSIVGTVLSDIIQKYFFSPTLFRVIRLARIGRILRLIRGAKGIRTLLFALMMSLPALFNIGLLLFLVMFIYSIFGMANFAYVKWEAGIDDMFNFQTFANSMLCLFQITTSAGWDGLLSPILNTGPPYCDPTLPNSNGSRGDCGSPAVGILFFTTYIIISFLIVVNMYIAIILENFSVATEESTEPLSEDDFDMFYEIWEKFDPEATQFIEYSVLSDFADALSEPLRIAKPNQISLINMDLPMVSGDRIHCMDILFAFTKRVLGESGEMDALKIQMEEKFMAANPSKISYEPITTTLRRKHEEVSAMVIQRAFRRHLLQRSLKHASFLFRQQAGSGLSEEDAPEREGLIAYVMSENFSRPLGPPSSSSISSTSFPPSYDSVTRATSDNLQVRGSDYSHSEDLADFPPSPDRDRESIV
T2 sequence (Q15858 whole entry): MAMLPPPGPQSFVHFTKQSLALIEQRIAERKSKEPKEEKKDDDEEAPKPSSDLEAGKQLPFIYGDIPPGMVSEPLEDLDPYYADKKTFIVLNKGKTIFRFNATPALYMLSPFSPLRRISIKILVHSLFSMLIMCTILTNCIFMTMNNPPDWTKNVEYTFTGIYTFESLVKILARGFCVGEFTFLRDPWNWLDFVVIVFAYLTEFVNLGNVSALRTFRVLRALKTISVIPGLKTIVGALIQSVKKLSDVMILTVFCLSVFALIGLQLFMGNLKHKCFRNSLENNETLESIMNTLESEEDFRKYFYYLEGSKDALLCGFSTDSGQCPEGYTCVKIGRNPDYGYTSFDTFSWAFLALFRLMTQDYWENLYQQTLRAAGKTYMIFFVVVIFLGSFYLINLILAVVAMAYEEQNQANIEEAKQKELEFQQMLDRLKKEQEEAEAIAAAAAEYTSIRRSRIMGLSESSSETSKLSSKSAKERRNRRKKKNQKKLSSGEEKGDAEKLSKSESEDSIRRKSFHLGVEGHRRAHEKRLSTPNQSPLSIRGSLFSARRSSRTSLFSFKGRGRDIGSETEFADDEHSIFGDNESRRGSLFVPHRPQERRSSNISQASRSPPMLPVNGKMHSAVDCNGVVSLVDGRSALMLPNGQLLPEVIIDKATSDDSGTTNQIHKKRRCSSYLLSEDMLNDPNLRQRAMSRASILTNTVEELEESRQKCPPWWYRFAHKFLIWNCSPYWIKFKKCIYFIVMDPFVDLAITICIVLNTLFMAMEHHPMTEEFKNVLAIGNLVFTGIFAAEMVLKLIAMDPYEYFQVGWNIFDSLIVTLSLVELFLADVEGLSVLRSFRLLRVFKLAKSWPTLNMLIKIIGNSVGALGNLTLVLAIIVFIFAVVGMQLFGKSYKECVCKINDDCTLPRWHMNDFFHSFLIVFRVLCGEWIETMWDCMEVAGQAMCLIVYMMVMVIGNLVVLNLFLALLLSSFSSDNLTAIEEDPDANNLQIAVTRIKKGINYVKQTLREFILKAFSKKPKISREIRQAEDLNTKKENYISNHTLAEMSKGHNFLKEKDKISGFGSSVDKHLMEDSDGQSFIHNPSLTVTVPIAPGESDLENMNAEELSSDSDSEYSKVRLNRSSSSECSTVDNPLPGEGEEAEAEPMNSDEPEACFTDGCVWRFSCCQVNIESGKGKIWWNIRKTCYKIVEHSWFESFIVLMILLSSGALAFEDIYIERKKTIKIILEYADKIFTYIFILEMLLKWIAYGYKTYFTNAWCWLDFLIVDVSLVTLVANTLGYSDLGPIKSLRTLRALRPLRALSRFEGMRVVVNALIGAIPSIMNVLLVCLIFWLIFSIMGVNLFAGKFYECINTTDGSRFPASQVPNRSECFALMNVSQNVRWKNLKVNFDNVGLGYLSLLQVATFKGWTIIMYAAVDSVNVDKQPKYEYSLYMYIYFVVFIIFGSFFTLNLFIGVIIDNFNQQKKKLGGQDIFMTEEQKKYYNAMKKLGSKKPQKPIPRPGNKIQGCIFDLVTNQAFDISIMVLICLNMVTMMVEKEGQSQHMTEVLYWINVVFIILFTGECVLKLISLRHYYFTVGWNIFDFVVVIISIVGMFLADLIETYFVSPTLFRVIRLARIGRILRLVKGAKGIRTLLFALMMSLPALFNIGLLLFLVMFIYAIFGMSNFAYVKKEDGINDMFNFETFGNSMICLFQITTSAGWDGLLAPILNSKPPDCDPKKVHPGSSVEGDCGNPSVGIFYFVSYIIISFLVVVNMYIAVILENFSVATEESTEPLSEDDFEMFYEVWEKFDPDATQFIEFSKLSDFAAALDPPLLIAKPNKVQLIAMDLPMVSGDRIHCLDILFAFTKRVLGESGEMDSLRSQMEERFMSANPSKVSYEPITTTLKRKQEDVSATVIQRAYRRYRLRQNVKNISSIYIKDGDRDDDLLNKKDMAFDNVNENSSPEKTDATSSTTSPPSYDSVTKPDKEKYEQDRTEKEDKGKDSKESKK

As to `N[C@@H]1CCCC[C@H]1NCCCCNc1cc(F)c(S(=O)(=O)Nc2nccs2)cc1Cl` [Ex 1-28, 4-[(4-{[(1R,2R)-2-aminocyclohexyl]amino}butyl)amino]-5-chloro-2-fluoro-N-1,3-thiazol-2-ylbenzenesulfonamide], in assay [1], the “ratio of Nav 1.7 potency:Nav 1.5 potency” value is on record as greater than 3930. Besides, in assay [2], the IC50 was 8.4 nM.

Consider `N[C@@H]1CCC[C@@H]1NCCCCNc1cc(F)c(S(=O)(=O)Nc2nccs2)cc1Cl` [Ex 1-29, 4-[(4-{[(1S,2R)-2-aminocyclopentyl]amino}butyl)amino]-5-chloro-2-fluoro-N-1,3-thiazol-2-ylbenzenesulfonamide], for which the “ratio of Nav 1.7 potency:Nav 1.5 potency” value in assay [1] was greater than 635. Besides, the IC50 in assay [2] turned out to be 52 nM.

As to `O=S(=O)(Nc1ncns1)c1cc(F)c(NCCCCNC[C@@H]2CCCN2)cc1F` [Ex 7-7, 2,5-difluoro-4-[(4-{[(2S)-pyrrolidin-2-ylmethyl]amino}butyl)amino]-N-1,2,4-thiadiazol-5-ylbenzenesulfonamide], the “ratio of Nav 1.7 potency:Nav 1.5 potency” value in assay [1] is greater than 410. For the same compound, in assay [2], the IC50 amounted to 80 nM.

For `N[C@@H]1CCC[C@H]1NCCCCNc1cc(F)c(S(=O)(=O)Nc2ncns2)cc1Cl` [Ex 12-07, 4-[(4-{[(1R,2R)-2-aminocyclo-pentyl]amino}butyl)amino]-5-chloro-2-fluoro-N-1,2,4-thiadiazol-5-yl-benzene-sulfonamide], in assay [1], the “ratio of Nav 1.7 potency:Nav 1.5 potency” value is listed as greater than 5500. Further, the IC50 in assay [2] was determined as 6 nM.

As to `N[C@@H]1CCC[C@H]1NCCCCNc1cc(F)c(S(=O)(=O)Nc2ncc(F)s2)cc1Cl` [Ex 16-05, 4-[(4-{[(1R,2R)-2-aminocyclopentyl]-amino}-butyl)-amino]-5-chloro-2-fluoro-N-(5-fluoro-1,3-thiazol-2-yl)-benzene-sulfonamide], the “ratio of Nav 1.7 potency:Nav 1.5 potency” value in assay [1] worked out at 3400. For the same compound, the IC50 in assay [2] was found to be 5 nM.

As for `C[C@@H](N)CNCCCCNc1cc(F)c(S(=O)(=O)Nc2ncc(F)s2)cc1Cl` [Ex 16-06, 4-[(4-{[(1R,2R)-2-aminopropyl]amino}-butyl)amino]-5-chloro-2-fluoro-N-(5-fluoro-1,3-thiazol-2-yl)benzene-sulfonamide], in assay [1], the “ratio of Nav 1.7 potency:Nav 1.5 potency” value is on record as greater than 4070. Also, in assay [2], the IC50 turned out to be 8.1 nM.

With `N[C@@H]1CCC[C@H]1NCCCCNc1cc(F)c(S(=O)(=O)Nc2nccs2)cc1Cl` [Ex 16-09], in assay [1], the “ratio of Nav 1.7 potency:Nav 1.5 potency” value is given as greater than 3590. The IC50 in assay [2] came to 9.2 nM.

Consider `C[C@H](N)CNCCCCNc1cc(F)c(S(=O)(=O)Nc2nccs2)cc1Cl` [Ex 16-12, 4-[(4-{[(2S)-2-aminopropyl]-amino}butyl)amino]-5-chloro-2-fluoro-N-1,3-thiazol-2-yl-benzene-sulfonamide], for which the “ratio of Nav 1.7 potency:Nav 1.5 potency” value in assay [1] is given as greater than 2540. In assay [2], the IC50 turned out to be 13 nM.

Take `O=S(=O)(Nc1ncc(F)s1)c1cc(Cl)c(NCCCCNC[C@H]2CCCN2)cc1F` [Ex 16-13, 5-chloro-2-fluoro-N-(5-fluoro-1,3-thiazol-2-yl)-4-[(4-{[(2R)-pyrrolidin-2-yl-methyl]amino}-butyl)-amino] benzenesulfonamide]: the “ratio of Nav 1.7 potency:Nav 1.5 potency” value in assay [1] was 2538. The IC50 in assay [2] was 12 nM.

For `O=S(=O)(Nc1nccs1)c1cc(Cl)c(NCCCCNCC[C@H]2CCCN2)cc1F` [Ex 16-14, 5-chloro-2-fluoro-4-{[4-({2-[(2R)-pyrrolidin-2-yl]ethyl}-amino)-butyl]-amino}-N-1,3-thiazol-2-yl-benzenesulfonamide], the “ratio of Nav 1.7 potency:Nav 1.5 potency” value in assay [1] is listed as greater than 846. For the same compound, in assay [2], the IC50 came to 39 nM.

As to `O=S(=O)(Nc1ncc(F)s1)c1cc(Cl)c(NCCCCNC[C@H]2CCCCN2)cc1F` [Ex 16-16, 5-chloro-2-fluoro-N-(5-fluoro-1,3-thiazol-2-yl)-4-[(4-{[(2R)-piperidin-2-yl-methyl]amino}butyl)-amino] benzenesulfonamide], in assay [1], the “ratio of Nav 1.7 potency:Nav 1.5 potency” value is given as greater than 3800. Further, the IC50 in assay [2] came out at 8.7 nM.

For the compound `O=S(=O)(Nc1ncns1)c1cc(Cl)c(NCCCCNC[C@H]2CCCN2)cc1F` [Ex 16-17, 5-chloro-2-fluoro-4-[(4-{[(2R)-pyrrolidin-2-yl-methyl]amino}butyl)amino]-N-1,2,4-thiadiazol-5-yl-benzenesulfonamide], the “ratio of Nav 1.7 potency:Nav 1.5 potency” value in assay [1] is given as greater than 3980. In assay [2], the IC50 worked out at 8.3 nM.

Turning to `O=S(=O)(Nc1ncns1)c1cc(Cl)c(NCCCCNCC[C@H]2CCCN2)cc1F` [Ex 16-20, 5-chloro-2-fluoro-4-{[4-({2-[(2R)-pyrrolidin-2-yl]ethyl}-amino)butyl]amino}-N-1,2,4-thiadiazol-5-ylbenzene-sulfonamide], in assay [1], the “ratio of Nav 1.7 potency:Nav 1.5 potency” value is reported as greater than 412. For the same compound, in assay [2], the IC50 is 80 nM.

Turning to `O=S(=O)(Nc1ncns1)c1cc(Cl)c(NCCCCNCC[C@@H]2CCCN2)cc1F` [Ex 16-21, 5-chloro-2-fluoro-4-{[4-({2-[(2S)-pyrrolidin-2-yl]ethyl}-amino)butyl]amino}-N-1,2,4-thiadiazol-5-ylbenzene-sulfonamide], the “ratio of Nav 1.7 potency:Nav 1.5 potency” value in assay [1] was greater than 1046. In assay [2], the IC50 was found to be 31 nM.

On to `O=S(=O)(Nc1ncc(F)s1)c1cc(Cl)c(NCCCCNC2CNC2)cc1F` [Ex 16-22, 4-{[4-(azetidin-3-ylamino)-butyl]amino}-5-chloro-2-fluoro-N-(5-fluoro-1,3-thiazol-2-yl)benzene-sulfonamide], for which the “ratio of Nav 1.7 potency:Nav 1.5 potency” value in assay [1] is reported as greater than 868. In assay [2], the IC50 was found to be 38 nM.

On to `O=S(=O)(Nc1ncc(F)s1)c1cc(Cl)c(NCCCCNCC[C@@H]2CCCN2)cc1F` [Ex 16-24, 5-chloro-2-fluoro-N-(5-fluoro-1,3-thiazol-2-yl)-4-{[4-({2-[(2S)-pyrrolidin-2-yl]ethyl}amino)butyl]amino} benzenesulfonamide], for which the “ratio of Nav 1.7 potency:Nav 1.5 potency” value in assay [1] is recorded as greater than 1571. In assay [2], the IC50 worked out at 21 nM.

Regarding `C[C@H](CCN)NCCCCNc1cc(F)c(S(=O)(=O)Nc2ncc(F)s2)cc1Cl` [Ex 16-25, 4-[(4-{[(1R)-3-amino-1-methylpropyl]amino}butyl)amino]-5-chloro-2-fluoro-N-(5-fluoro-1,3-thiazol-2-yl)-benzenesulfonamide], the “ratio of Nav 1.7 potency:Nav 1.5 potency” value in assay [1] is given as greater than 1270. Besides, the IC50 in assay [2] came out at 26 nM.

For `CC(C)(CCN)NCCCCNc1cc(F)c(S(=O)(=O)Nc2ncc(F)s2)cc1Cl` [Ex 16-27, 4-({4-[(3-amino-1,1-dimethylpropyl)amino]butyl}amino)-5-chloro-2-fluoro-N-(5-fluoro-1,3-thiazol-2-yl)-benzenesulfonamide], in assay [1], the “ratio of Nav 1.7 potency:Nav 1.5 potency” value is on record as greater than 1737. Further, the IC50 in assay [2] was found to be 19 nM.

Take `CNCCCNCCCCNc1cc(F)c(S(=O)(=O)Nc2ncc(F)s2)cc1Cl` [Ex 16-28, 5-chloro-2-fluoro-N-(5-fluoro-1,3-thiazol-2-yl)-4-[(4-{[3-(methylamino)-propyl]amino}butyl)amino]-benzenesulfonamide]: the “ratio of Nav 1.7 potency:Nav 1.5 potency” value in assay [1] is recorded as greater than 1320. Moreover, in assay [2], the IC50 is 25 nM.

Regarding `C[C@@H](N)CCNCCCCNc1cc(F)c(S(=O)(=O)Nc2ncc(F)s2)cc1Cl` [Ex 16-30, 4-[(4-{[(3R)-3-amino-butyl]amino}butyl)amino]-5-chloro-2-fluoro-N-(5-fluoro-1,3-thiazol-2-yl)benzene-sulfonamide], the “ratio of Nav 1.7 potency:Nav 1.5 potency” value in assay [1] is recorded as greater than 2357. Also, the IC50 in assay [2] is 14 nM.

With `NCCCNCCCCNc1cc(F)c(S(=O)(=O)Nc2ncns2)cc1Cl` [Ex 16-32, 4-({4-[(3-aminopropyl)-amino]butyl}amino)-5-chloro-2-fluoro-N-1,2,4-thiadiazol-5-ylbenzene-sulfonamide], the “ratio of Nav 1.7 potency:Nav 1.5 potency” value in assay [1] is listed as greater than 673. For the same compound, the IC50 in assay [2] is 49 nM.

For `CNCCNCCCCNc1cc(F)c(S(=O)(=O)Nc2ncns2)cc1Cl` [Ex 16-48, 5-chloro-2-fluoro-4-[(4-{[2-(methylamino)ethyl]amino}-butyl)amino]-N-1,2,4-thiadiazol-5-ylbenzene-sulfonamide], the “ratio of Nav 1.7 potency:Nav 1.5 potency” value in assay [1] is greater than 3750. The IC50 in assay [2] was determined as 8.8 nM.

Take `NCCNCCCCNc1cc(F)c(S(=O)(=O)Nc2ncc(F)s2)cc1Cl` [Ex 16-57, 4-({4-[(2-aminoethyl)-amino]butyl}amino)-5-chloro-2-fluoro-N-(5-fluoro-1,3-thiazol-2-yl) benzene-sulfonamide]: the “ratio of Nav 1.7 potency:Nav 1.5 potency” value in assay [1] is given as greater than 4400. Besides, the half-inhibitory concentration (IC50) in assay [2] was found to be 7.5 nM.

On to `C[C@H](CN)NCCCCNc1cc(F)c(S(=O)(=O)Nc2ncc(F)s2)cc1Cl` [Ex 16-59, 4-[(4-{[(1R)-2-amino-1-methylethyl]amino}butyl)-amino]-5-chloro-2-fluoro-N-(5-fluoro-1,3-thiazol-2-yl)-benzenesulfonamide], for which the “ratio of Nav 1.7 potency:Nav 1.5 potency” value in assay [1] is greater than 1941. In addition, the IC50 in assay [2] was determined as 17 nM.

With `NCC1(NCCCCNc2cc(F)c(S(=O)(=O)Nc3ncc(F)s3)cc2Cl)CCC1` [Ex 16-62, 4-[(4-{[1-(aminomethyl)cyclobutyl]amino}butyl)amino]-5-chloro-2-fluoro-N-(5-fluoro-1,3-thiazol-2-yl)benzenesulfonamide], the “ratio of Nav 1.7 potency:Nav 1.5 potency” value in assay [1] is greater than 917. Further, in assay [2], the IC50 came out at 36 nM.
